From PubChem BioAssay (NCI)
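How tested: cells in 96-well plates exposed to compound for 48 hours at five concentrations. TGI marks complete inhibition of growth.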

Columns and labels:
Assay in all cases: inhibition of tumour cell growth, NCI panel, 48 h
A549 NSCLC = system: A549 NSCLC
BT-549 breast = system: BT-549 breast
EKVX NSCLC = system: EKVX NSCLC
HL-60(TB) leukemia = system: HL-60(TB) leukemia
MDA-MB-435 = system: MDA-MB-435
NCI-H460 lung = system: NCI-H460 lung
NCI/ADR-RES ovarian = system: NCI/ADR-RES ovarian
SF-295 CNS = system: SF-295 CNS
SW-620 colon = system: SW-620 colon
UACC-257 melanoma = system: UACC-257 melanoma

SMILES | TGI (A549 NSCLC) | TGI (BT-549 breast) | TGI (EKVX NSCLC) | TGI (HL-60(TB) leukemia) | TGI (MDA-MB-435) | TGI (NCI-H460 lung) | TGI (NCI/ADR-RES ovarian) | TGI (SF-295 CNS) | TGI (SW-620 colon) | TGI (UACC-257 melanoma)
CC1(C)Oc2ccc(Cl)cc2C12CC2 | 48.4 µM | 68.5 µM | 37.9 µM | 40.3 µM | 32.6 µM | 39.7 µM | 44 µM | 27 µM | 30.9 µM | 30.1 µM
CCOC(OCC)C(CCc1ccccc1)c1c(N)nc(N)[nH]c1=O (stereo not drawn) | > 100 µM | > 100 µM | 22.3 µM | > 100 µM | > 100 µM | > 100 µM | > 100 µM | > 100 µM | > 100 µM | > 100 µM
CC1NOC(NS(=O)(=O)c2ccc(N=Nc3c(O)c(C(=O)O)cc4ccccc34)cc2)C1C (stereo not drawn) | > 100 µM | > 100 µM | > 100 µM | > 100 µM | > 100 µM | > 100 µM | > 100 µM | > 100 µM | > 100 µM | > 100 µM
Cc1nnc(N)nc1/C=C\c1cccs1 | > 100 µM | > 100 µM | 55.6 µM | 31.7 µM | 74.9 µM | 32.5 µM | 76.6 µM | > 100 µM | > 100 µM | > 100 µM
O=c1[nH]c(=O)n(C2CC(O)C(CO)O2)cc1NN=NCc1ccccc1 (stereo not drawn) | > 100 µM | > 100 µM | > 100 µM | > 100 µM | > 100 µM | > 100 µM | > 100 µM | > 100 µM | – | > 100 µM
O=C(NN=C1CCCCC1)Nc1ccccc1Cl | > 100 µM | > 100 µM | > 100 µM | > 100 µM | 47.5 µM | > 100 µM | 63.9 µM | > 100 µM | > 100 µM | > 100 µM
O=C(c1ccc(Cl)cc1)N(Cc1cccnc1)C(=S)N(Cc1cccnc1)C(=O)c1ccc(Cl)cc1 | > 100 µM | 51 µM | > 100 µM | 85.2 µM | > 100 µM | > 100 µM | > 100 µM | > 100 µM | > 100 µM | > 100 µM
O=C1c2ccccc2C2(c3ccc(Cl)cc3)NCc3ccccc3CN12 (stereo not drawn) | 43.8 µM | > 100 µM | 49.1 µM | 40.6 µM | > 100 µM | 91.5 µM | 29.9 µM | 35.7 µM | > 100 µM | > 100 µM
CCCCCC(/C=C/[C@@H]1CC(=O)C[C@H]1O[Si](C)(C)C(C)(C)C)OCOCCOC (stereo partly drawn) | 33.5 µM | 11.7 µM | 23.7 µM | > 100 µM | 4.64 µM | 40.2 µM | 10.5 µM | 25.5 µM | > 28.1 µM | 11 µM
Cc1ccc(S(=O)(=O)n2cc(-c3cnc(N)c(Br)n3)c3ccccc32)cc1 | > 100 µM | > 100 µM | > 100 µM | 6.58 µM | 0.588 µM | > 100 µM | > 25.7 µM | > 100 µM | > 100 µM | > 100 µM
CCOC(=O)N(CC)c1c(C(F)(F)F)cc(-c2ccccc2)[nH]c1=O | > 100 µM | > 100 µM | 95.1 µM | 30 µM | 56.7 µM | > 100 µM | > 100 µM | > 100 µM | > 100 µM | > 100 µM
CC[C@@]1(O)C(=O)OCc2c1cc1n(c2=O)Cc2c-1nc1ccccc1c2/C=N\NC(=O)C(N)CS (stereo partly drawn) | > 100 µM | > 100 µM | > 100 µM | > 100 µM | > 100 µM | > 43.6 µM | > 45.2 µM | > 33.9 µM | > 100 µM | > 100 µM
COc1ccc2[nH]c(C(=O)N3CC(CCl)c4ccc([N+](=O)[O-])cc43)cc2c1 (stereo not drawn) | > 100 µM | > 100 µM | > 100 µM | > 100 µM | > 100 µM | > 100 µM | > 100 µM | > 100 µM | > 100 µM | > 100 µM
CC(=O)c1ccc2c(c1)oc(=O)n2CCN(C)C | – | > 100 µM | > 100 µM | > 100 µM | > 100 µM | > 100 µM | > 100 µM | > 100 µM | > 100 µM | > 100 µM
COc1cc2c3c(cc(Cl)nc3c1OC)C(O)(CC(C)=O)C(=O)N2 (stereo not drawn) | > 62.3 µM | 30.8 µM | 30.9 µM | 24.1 µM | 30.9 µM | > 89.6 µM | > 63.9 µM | > 100 µM | > 71 µM | 21.5 µM
O=c1c2cc(-c3ccccc3)cnc2sn1-c1ccc([N+](=O)[O-])cc1 | > 100 µM | > 100 µM | > 100 µM | > 100 µM | > 100 µM | > 100 µM | > 100 µM | > 100 µM | > 100 µM | > 100 µM
C[C@H](CC[C@@H](O)C(C)(C)O)[C@H]1CC[C@@]2(C)[C@@H]3CC=C4[C@@H](CC[C@H](OC5OC(CO)C(O)C(O)C5O)C4(C)C)[C@]3(C)C(=O)C[C@]12C (stereo partly drawn) | > 100 µM | > 100 µM | > 100 µM | 75.8 µM | > 100 µM | > 100 µM | > 100 µM | > 100 µM | > 100 µM | > 100 µM
CN(N)C(=O)NCCCl | > 100 µM | > 100 µM | > 100 µM | > 100 µM | > 100 µM | > 100 µM | 0.31 µM | > 100 µM | > 100 µM | > 100 µM
O=C1Nc2ccccc2NC1C1OC(c2ccccc2)=CC1=O (stereo not drawn) | > 100 µM | > 100 µM | > 100 µM | > 100 µM | > 100 µM | > 100 µM | > 100 µM | > 100 µM | > 100 µM | > 100 µM
